According to BigSolDB 2.1:

O=C(Oc1ccccc1)c1ccccc1O
solubility (mole fraction)
Conditions | in ethanol | in isobutanol | in isopropanol | in methanol | in n-butanol | in n-propanol | in sec-butanol
283.15 K | 0.0226 | 0.0185 | 0.0169 | 0.0162 | 0.0337 | 0.0272 | 0.0381
288.15 K | 0.0361 | 0.0288 | 0.0273 | 0.0251 | 0.0511 | 0.043 | 0.0602
293.15 K | 0.0647 | 0.0517 | 0.0487 | 0.0459 | 0.0908 | 0.0756 | 0.105
298.15 K | 0.127 | 0.112 | 0.101 | 0.0946 | 0.182 | 0.152 | 0.201
303.15 K | 0.289 | 0.279 | 0.275 | 0.274 | 0.34 | 0.33 | 0.398
308.15 K | 0.715 | 0.709 | 0.702 | 0.694 | 0.75 | 0.718 | 0.752
